Measurements as given in patent publication US20210069120A1, “COMPOSITE NANOPARTICLE, PREPARATION METHOD THEREOF AND PREPARATION METHOD OF COMPOSITE NANO PREPARATION USING THEREOF” (JINAN UNIVERSITY, priority 2018, published 2021).

Columns and labels:
MDA-MB-231 cells [1] = test: Apoptosis of MDA-MB-231 cells detected by flow cytometry (Annexin V-FITC/PI); format: cell-based, human
Experimental: After Blank PLN, PTX, PSO, I-PSO, PTX+PSO+I-PSO and (PTX+PSO+I-PSO)-PLN were used to act on the MDA-MB-231 cells respectively, a blank control without drug treatment was set at the same time. Cells were collected, an Annexin V-FITC buffer solution and a propidium iodide (PI) staining solution were added respectively, and cell apoptosis was detected by a flow cytometry, wherein green fluorescence was Annexin V-FITC, and red fluorescence was PI. Annexin V-FITC/PI double staining was dominant in late apoptotic cells and dead cells which referred to an upper right region on a flow cytometry diagram, while AnnexinV-FITC staining was dominant in early apoptotic cells which referred to a lower right region on the flow cytometry diagram. The experiment was repeated for three times.

MDA-MB-231 cells [2] = test: MTT proliferation inhibition / toxicity on MDA-MB-231; format: cell-based, human; settings: 48 hours, concentration range of 0.39 to 100 μmol/L
Experimental: 4×10^3 MDA-MB-231 cells/well were inoculated into a 96-well plate with a concentration of 100 μL/well, and cultured in a 5% CO2 cell incubator at 37° C. for 24 hours, then a supernatant was removed after 24 hours, and 200 μL of drug-containing medium was added. The final concentrations of the PTX added to the MDA-MB-231 cells were 0.0039 μmol/L, 0.0078 μmol/L, 0.0156 μmol/L, 0.03125 μmol/L, 0.0625 μmol/L, 0.125 μmol/L, 0.25 μmol/L, 0.5 μmol/L and 1 μmol/L. At the same time, a control group (the same amount of culture fluid was added) and a blank zeroing group were set up. Each well was provided with 6 multiple wells and placed in a CO2 incubator for continuous cultivation for 48 hours. […] An OD value was measured at 570 nm of an enzyme reader. […]
(§1) 4×10^3 MDA-MB-231 cells/well were inoculated into a 96-well plate with a concentration of 100 μL/well, and cultured in a 5% CO2 cell incubator at 37° C. for 24 hours, then a supernatant was removed after 24 hours, and 200 μL of drug-containing medium was added. […] An OD value was measured at 570 nm of an enzyme reader. […]
as §1

SMILES | Apoptosis rate (%) of MDA-MB-231 cells (MDA-MB-231 cells [1]) [%] | toxicity to the MDA-MB-231 cells (cell viability) (MDA-MB-231 cells [2])
O=c1ccc2ccc3occc3c2o1 [I-PSO, isopsoralen] | 11.5 | 
O=c1ccc2cc3ccoc3cc2o1 [PSO, psoralen] | 13.8 | no obvious toxicity
CC(=O)O[C@H]1C(=O)[C@@]2(C)[C@H]([C@H](OC(=O)c3ccccc3)[C@]3(O)C[C@H](OC(=O)[C@H](O)[C@@H](NC(=O)c4ccccc4)c4ccccc4)C(C)=C1C3(C)C)[C@]1(OC(C)=O)CO[C@@H]1C[C@@H]2O [PTX, paclitaxel] | 15.1 | 
